Test results published in patent US9120752B2, “Pyridine compounds as sodium channel blockers” (Purdue Pharma, L.P., priority 2010, dated 2015).

Target: human Nav1.7 (Homo sapiens (Human), UniProt Q15858)
Assay: FLIPR or FLIPR TETRA sodium dye assay with KCl and test article pre-incubation
Type: cell-based
Conditions: sodium dye assay with KCl; recombinant Nav1.7/HEK293 cells; read-out: Nav1.7 IC50 (μM) ± SEM

human Nav1.7, sequence (Q15858 other isoform, or with tags, fused parts or gaps): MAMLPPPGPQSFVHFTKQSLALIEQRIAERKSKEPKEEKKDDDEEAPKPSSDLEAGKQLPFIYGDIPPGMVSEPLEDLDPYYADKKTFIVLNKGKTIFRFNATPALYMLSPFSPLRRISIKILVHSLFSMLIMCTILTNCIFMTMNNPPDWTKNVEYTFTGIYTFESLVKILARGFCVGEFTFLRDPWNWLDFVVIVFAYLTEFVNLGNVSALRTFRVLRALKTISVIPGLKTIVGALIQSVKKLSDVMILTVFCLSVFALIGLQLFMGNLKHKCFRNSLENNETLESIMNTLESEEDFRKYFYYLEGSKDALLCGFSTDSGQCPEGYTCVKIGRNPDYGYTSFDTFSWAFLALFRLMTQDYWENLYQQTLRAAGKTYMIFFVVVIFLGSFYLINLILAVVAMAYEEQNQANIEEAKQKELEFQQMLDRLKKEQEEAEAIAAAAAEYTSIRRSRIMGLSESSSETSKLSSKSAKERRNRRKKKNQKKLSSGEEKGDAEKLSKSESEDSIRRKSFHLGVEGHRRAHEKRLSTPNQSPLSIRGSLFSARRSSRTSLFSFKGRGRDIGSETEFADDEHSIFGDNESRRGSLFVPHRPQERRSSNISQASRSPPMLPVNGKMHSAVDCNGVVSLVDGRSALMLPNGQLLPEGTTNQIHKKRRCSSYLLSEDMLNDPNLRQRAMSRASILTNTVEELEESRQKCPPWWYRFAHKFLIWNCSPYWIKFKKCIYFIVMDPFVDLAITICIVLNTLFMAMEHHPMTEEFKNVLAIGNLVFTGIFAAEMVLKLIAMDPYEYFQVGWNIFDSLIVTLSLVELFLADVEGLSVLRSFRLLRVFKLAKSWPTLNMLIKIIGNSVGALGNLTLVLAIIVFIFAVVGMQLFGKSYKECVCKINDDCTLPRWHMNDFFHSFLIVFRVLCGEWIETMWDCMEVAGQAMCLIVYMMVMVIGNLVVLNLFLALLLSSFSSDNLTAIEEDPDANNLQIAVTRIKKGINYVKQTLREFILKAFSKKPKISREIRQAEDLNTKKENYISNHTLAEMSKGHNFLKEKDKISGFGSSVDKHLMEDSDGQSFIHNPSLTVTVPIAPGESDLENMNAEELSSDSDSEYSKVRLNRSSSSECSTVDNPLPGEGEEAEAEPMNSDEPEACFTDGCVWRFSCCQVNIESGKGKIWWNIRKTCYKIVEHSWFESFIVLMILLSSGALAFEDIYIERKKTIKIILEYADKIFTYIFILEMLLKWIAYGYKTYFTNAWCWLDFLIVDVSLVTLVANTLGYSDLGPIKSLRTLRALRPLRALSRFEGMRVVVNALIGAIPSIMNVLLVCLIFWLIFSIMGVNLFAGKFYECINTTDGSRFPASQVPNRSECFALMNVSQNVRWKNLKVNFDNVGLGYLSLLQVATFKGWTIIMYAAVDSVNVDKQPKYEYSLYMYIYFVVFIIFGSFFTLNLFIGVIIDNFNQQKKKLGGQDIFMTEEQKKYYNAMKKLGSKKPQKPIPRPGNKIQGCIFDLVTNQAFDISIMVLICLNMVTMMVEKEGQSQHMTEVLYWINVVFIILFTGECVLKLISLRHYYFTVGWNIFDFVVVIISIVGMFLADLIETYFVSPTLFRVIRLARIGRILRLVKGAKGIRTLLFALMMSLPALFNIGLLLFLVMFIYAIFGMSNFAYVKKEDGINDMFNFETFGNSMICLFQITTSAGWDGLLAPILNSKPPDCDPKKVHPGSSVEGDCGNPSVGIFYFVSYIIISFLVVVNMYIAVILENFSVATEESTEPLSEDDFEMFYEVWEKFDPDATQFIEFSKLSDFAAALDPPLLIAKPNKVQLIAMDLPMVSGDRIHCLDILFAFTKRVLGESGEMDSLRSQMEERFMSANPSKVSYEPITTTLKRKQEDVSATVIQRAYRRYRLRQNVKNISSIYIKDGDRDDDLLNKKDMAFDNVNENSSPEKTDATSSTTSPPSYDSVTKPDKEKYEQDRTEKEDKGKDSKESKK

Structure (SMILES) | IC50 [µM]
O=C(c1cccc(-c2ccc(Oc3ccc(F)cc3)cc2)n1)N1CCN(S(=O)(=O)c2ccc(OC(F)(F)F)cc2)CC1 [Compound 7, (6-(4-(4-fluorophenoxy)phenyl)pyridin-2-yl)(4-((4-(trifluoromethoxy)phenyl)sulfonyl)piperazin-1-yl)methanone] | 0.19 ± 0.05
CS(=O)(=O)c1cccc(S(=O)(=O)N2CCN(C(=O)c3cccc(-c4ccc(Oc5ccc(F)cc5)cc4)n3)CC2)c1 [Compound 8, (6-(4-(4-fluorophenoxy)phenyl)pyridin-2-yl)(4-((3-(methylsulfonyl)phenyl)sulfonyl)piperazin-1-yl)methanone] | 0.78 ± 0.17
N#Cc1cccc(S(=O)(=O)N2CCN(C(=O)c3cccc(-c4ccc(Oc5ccc(F)cc5)cc4)n3)CC2)c1 [Compound 10, 3-((4-(6(4-(4-fluorophenoxy)phenyl)picolinoyl)piprazin-1-yl)sulfonyl)benzonitrile] | 0.43 ± 0.11
CN(C)S(=O)(=O)N1CCN(C(=O)c2cccc(-c3ccc(Oc4ccc(F)cc4)cc3)n2)CC1 [Compound 11, 4-(6-(4-(4-fluorophenoxy)phenyl)picolinoyl)-N,N-dimethyl-piperazine-1-sulfonamide] | 1.01 ± 0.09
CC1(C)C2CCC1(CS(=O)(=O)N1CCN(C(=O)c3cccc(-c4ccc(Oc5ccc(F)cc5)cc4)n3)CC1)C(=O)C2 (stereo not drawn) [Compound 12, 1-(((4-(6-(4-(4-fluorophenoxy)phenyl)picolinoyl)piperazin-1-yl)sulfonyl)methyl)-7,7-dimethylbicyclo[2.2.1]heptan-2-one] | 0.14 ± 0.04
CS(=O)(=O)N1CCN(C(=O)c2cccc(-c3ccc(Oc4ccc(F)cc4)cc3)n2)CC1 [Compound 13, (6-(4-(4-fluorophenoxy)phenyl)pyridin-2-yl)(4-(methylsulfonyl)piperazin-1-yl)methanone] | 1.31 ± 0.18
Cc1noc(C)c1S(=O)(=O)N1CCN(C(=O)c2cccc(-c3ccc(Oc4ccc(F)cc4)cc3)n2)CC1 [Compound 14, (4-((3,5-dimethylisoxazol-4-yl)sulfonyl)piperazin-1-yl)(6-(4-(4-fluorophenoxy)phenyl)pyridin-2-yl)methanone] | 0.22 ± 0.04
O=C(c1cccc(-c2ccc(Oc3ccc(F)cc3)cc2)n1)N1CCN(S(=O)(=O)c2cccnc2)CC1 [Compound 15, (6-(4-(4-fluorophenoxy)phenyl)pyridin-2-yl)(4-(pyridin-3-ylsulfonyl)piperazin-1-yl)methanone] | 0.42 ± 0.04
O=C(c1cccc(-c2ccc(Oc3ccc(F)cc3)cc2)n1)N1CCN(S(=O)(=O)c2cccc(OC(F)(F)F)c2)CC1 [Compound 16] | 0.32 ± 0.09
N#Cc1ccc(S(=O)(=O)N2CCN(C(=O)c3cccc(-c4ccc(Oc5ccc(F)cc5)cc4)n3)CC2)cc1 [Compound 17, 4-((4-(6-(4-(4-fluorophenoxy)phenyl)picolinoyl)piperazin-1-yl)sulfonyl)benzonitrile] | 0.97 ± 0.13
O=C(O)c1cccc(S(=O)(=O)N2CCN(C(=O)c3cccc(-c4ccc(Oc5ccc(F)cc5)cc4)n3)CC2)c1 [Compound 18, 3-((4-(6-(4-(4-fluorophenoxy)phenyl)picolinoyl)piperazin-1-yl)sulfonyl)benzoic acid] | 3.48 ± 0.72
O=C(O)c1ccc(S(=O)(=O)N2CCN(C(=O)c3cccc(-c4ccc(Oc5ccc(F)cc5)cc4)n3)CC2)cc1 [Compound 19, 4-((4-(6-(4-(4-fluorophenoxy)phenyl)picolinoyl)piperazin-1-yl)sulfonyl)benzoic acid] | 4.81 ± 0.18
CS(=O)(=O)NCCNC(=O)c1cccc(-c2ccc(Oc3ccc(F)cc3)cc2)n1 [Compound 21, 6-(4-(4-fluorophenoxy)phenyl)-N-(2-(methylsulfonamido)ethyl)picolinamide] | 0.39 ± 0.08
CS(=O)(=O)c1cccc(S(=O)(=O)NCCNC(=O)c2cccc(-c3ccc(Oc4ccc(F)cc4)cc3)n2)c1 [Compound 23, 6-(4-(4-fluorophenoxy)phenyl)-N-(2-(3-(methylsulfonyl)phenylsulfonamido)ethyl)picolinamide] | 0.39 ± 0.03
N#Cc1cccc(S(=O)(=O)NCCNC(=O)c2cccc(-c3ccc(Oc4ccc(F)cc4)cc3)n2)c1 [Compound 24, N-(2-(3-cyanophenylsulfonamido)ethyl)-6-(4-(4-fluorophenoxy)phenyl)picolinamide] | 0.03 ± 0.04
NC(=O)[C@@H](Cc1c[nH]c2ccccc12)NC(=O)c1cccc(-c2ccc(Oc3ccc(F)cc3)cc2)n1 [Compound 37, 6-[4-(4-fluoro-phenoxy)-phenyl]-pyridine-2-carboxylic acid [(R)-1-carbamoyl-2-(1H-indol-3-yl)-ethyl]-amide] | 4.02 ± 2.78
NC(=O)C[C@H](NC(=O)c1cccc(-c2ccc(Oc3ccc(F)cc3)cc2)n1)C(N)=O [Compound 39, (S)-2-({6-[4-(4-fluoro-phenoxy)-phenyl]-pyridine-2-carbonyl}-amino)-succinamide] | 0.75 ± 0.05
NC(=O)[C@@H](CO)NC(=O)c1cccc(-c2ccc(Oc3ccc(F)cc3)cc2)n1 [Compound 40, 6-[4-(4-fluoro-phenoxy)-phenyl]-pyridine-2-carboxylic acid ((R)-1-carbamoyl-2-hydroxyl-ethyl)-amide] | 1.32 ± 0.16
NC(=O)[C@H](Cc1ccccc1)NC(=O)c1cccc(-c2ccc(Oc3ccc(F)cc3)cc2)n1 [Compound 41, 6-[4-(4-fluoro-phenoxy)-phenyl]-pyridine-2-carboxylic acid ((S)-1-carbamoyl-2-phenyl-ethyl)-amide] | > 20

More lines, now with the values ahead:

IC50 [µM] | Structure (SMILES)
2.12 ± 0.35 | NC(=O)[C@@H]1CCCN1C(=O)c1cccc(-c2ccc(Oc3ccc(F)cc3)cc2)n1 [Compound 42, (S)-1-{6-[4-(4-fluoro-phenoxy)-phenyl]-pyridine-2-carbonyl}-pyrrolidine-2-carboxylic acid amide]
1.56 ± 0.5 | CC(O)[C@H](NC(=O)c1cccc(-c2ccc(Oc3ccc(F)cc3)cc2)n1)C(N)=O (stereo partly drawn) [Compound 43, 6-[4-(4-fluoro-phenoxy)-phenyl]-pyridine-2-carboxylic acid ((S)-1-carbamoyl-2-hydroxy-propyl)-amide]
0.34 ± 0.07 | CC(C)C[C@H](NC(=O)c1cccc(-c2ccc(Oc3ccc(F)cc3)cc2)n1)C(N)=O [Compound 44, 6-[4-(4-fluoro-phenoxy)-phenyl]-pyridine-2-carboxylic acid ((S)-1-carbamoyl-3-methyl-butyl)-amide]
0.21 ± 0.04 | NC(=O)[C@H](Cc1cccnc1)NC(=O)c1cccc(-c2ccc(Oc3ccc(F)cc3)cc2)n1 [Compound 45, (S)—N-(1-amino-1-oxo-3-(pyridin-3-yl)propan-2-yl)-6-(4-(4-fluorophenoxy)phenyl)picolinamide]
0.61 ± 0.05 | CC(C)[C@H](NC(=O)c1cccc(-c2ccc(Oc3ccc(F)cc3)cc2)n1)C(N)=O [Compound 46, 6-[4-(4-fluoro-phenoxy)-phenyl]-pyridine-2-carboxylic acid ((S)-1-carbamoyl-2-methyl-propyl)-amide]
0.55 ± 0.08 | NC(=O)[C@H](Cc1ccc(O)cc1)NC(=O)c1cccc(-c2ccc(Oc3ccc(F)cc3)cc2)n1 [Compound 48, 6-[4-(4-fluoro-phenoxy)-phenyl]-pyridine-2-carboxylic acid [(S)-1-carbamoyl-2-(4-hydroxy-phenyl)-ethyl]-amide]
0.33 ± 0.02 | NC(=O)[C@H](Cc1c[nH]cn1)NC(=O)c1cccc(-c2ccc(Oc3ccc(F)cc3)cc2)n1 [Compound 49, 6-[4-(4-fluoro-phenoxy)-phenyl]-pyridine-2-carboxylic acid [(S)-1-carbamoyl-2-(1H-imidazol-4-yl)-ethyl]-amide]
2.89 ± 0.33 | NCCCC[C@H](NC(=O)c1cccc(-c2ccc(Oc3ccc(F)cc3)cc2)n1)C(N)=O [Compound 51, (S)—N-(1,6-diamino-1-oxohexan-2-yl)-6-(4-(4-fluorophenoxy)phenyl)picolinamide]
5.94 ± 0.73 | N#Cc1cccc(S(=O)(=O)N2CCN(C(=O)c3cccc(Oc4ccc(F)cc4)n3)CC2)c1 [Compound 55, 3-((4-(6-(4-fluorophenoxy)picolinoyl)piperazin-1-yl)sulfonyl)benzonitrile]
6.81 ± 0.57 | N#Cc1cccc(S(=O)(=O)N2CCN(C(=O)c3cccc(-c4ccc(F)cc4)n3)CC2)c1 [Compound 56, 3-((4-(6-(4-fluorophenyl)picolinoyl)piperazin-1-yl)sulfonyl)benzonitrile]
2.31 ± 0.62 | N#Cc1cccc(S(=O)(=O)N2CCN(C(=O)c3cc([C@H](O)CO)cc(-c4ccc(Oc5ccc(F)cc5)cc4)n3)CC2)c1 [Compound 58, (S)-3-((4-(4-(1,2-dihydroxyethyl)-6-(4-(4-fluorophenoxy)phenyl)picolinoyl)piperazin-1-yl)sulfonyl)benzonitrile]
0.34 ± 0.13 | N#Cc1cc(S(=O)(=O)N2CCN(C(=O)c3cccc(-c4ccc(Oc5ccc(F)cc5)cc4)n3)CC2)ccc1F [Compound 59]
0.78 ± 0.1 | CN1CCOc2cc(S(=O)(=O)N3CCN(C(=O)c4cccc(-c5ccc(Oc6ccc(F)cc6)cc5)n4)CC3)ccc21 [Compound 60, (6-(4-(4-fluorophenoxy)phenyl)pyridin-2-yl)(4-((4-methyl-3,4-dihydro-2H-benzo[b][1,4]oxazin-7-yl)sulfonyl)piperazin-1-yl)methanone]
4.34 ± 0.73 | C[C@H](NC(=O)c1cccc(-c2ccc(Oc3ccc(C(F)(F)F)cn3)cc2)n1)C(N)=O [Compound 61, (S)—N-(1-amino-1-oxopropan-2-yl)-6-(4-((5-(trifluoromethyl)pyridin-2-yl)oxy)phenyl)picolinamide]
0.814 ± 0.231 | CC(C)C[C@H](NC(=O)c1cc([C@H](O)CO)cc(-c2ccc(Oc3ccc(F)cc3)cc2)n1)C(N)=O [Compound 63, N—((S)-1-amino-4-methyl-1-oxopentan-2-yl)-4-((S)-1,2-dihydroxyethyl)-6-(4-(4-fluorophenoxy)phenyl)picolinamide]
> 20 | NC(=O)C[C@H](NC(=O)c1cc([C@H](O)CO)cc(-c2ccc(Oc3ccc(F)cc3)cc2)n1)C(N)=O [Compound 64, (S)-2-(4-((S)-1,2-dihydroxyethyl)-6-(4-(4-fluorophenoxy)phenyl)picolinamido)succinamide]
1.56 ± 0.166 | CC(C)C[C@H](NC(=O)c1cc([C@@H](O)CO)cc(-c2ccc(Oc3ccc(F)cc3)cc2)n1)C(N)=O [Compound 65, N—((S)-1-amino-4-methyl-1-oxopentan-2-yl)-4-((R)-1,2-dihydroxyethyl)-6-(4-(4-fluorophenoxy)phenyl)picolinamide]
